Read-outs that look alike come from different tables or passages of the source.
Key:
[1] = system: Aspergillus fumigatus strain IP 864.64; assay: In vitro antifungal growth inhibition on microtitre plates (optical density 590 nm), compounds alone or as mixtures (Wadley method); format: cell-based; conditions: for inhibition at 0.026 µg/mL / inhibition at 0.098 µg/mL / inhibition at 0.39 µg/mL / inhibition at 1.562 µg/mL / inhibition at 6.25 µg/mL / inhibition at 25 µg/mL / inhibition at 100 µg/mL / EC50: Aspergillus fumigatus; for inhibition at 0.026 µg/mL: dose 0.026 μg/ml; for inhibition at 0.098 µg/mL: dose 0.098 μg/ml; for inhibition at 0.39 µg/mL: dose 0.39 μg/ml; for inhibition at 1.562 µg/mL: dose 1.562 μg/ml; for inhibition at 6.25 µg/mL: dose 6.25 μg/ml; for inhibition at 25 µg/mL: dose 25 μg/ml; for inhibition at 100 µg/mL: dose 100 μg/ml
Description: (§1) The following fungi were used for this study: Candida albicans strains IP 48.72 (ATCC 10231) and Aspergillus fumigatus strain IP 864.64 obtained from the Collection Nationale de Cultures de Microorganismes (CNCM) of the Institut Pasteur. The strains are cultured on Yeast Extract-Peptone-Dextrose (YEPD) agar medium comprising 0.5% yeast extract, 0.5% bactopeptone, 2% glucose and 2% agar at 30° C. and in the dark.
(§2) All these compounds were prepared in a DMSO solution at a final concentration of 100 mg/ml. The stock solutions are stored at −20° C. up to the time of use.
(§3) The trials are carried out in RPMI 1640 medium with no sodium bicarbonate, but with L-glutamine buffered with 0.165 mol per litre of 3-[N-morpholino]propanesulphonic acid (MOPS), enriched (<>) or otherwise (<>) with 2% glucose. The pH of this medium is adjusted to 7.0. The medium is sterilized by filtration (0.22 μm) and stored at 4° C. up to the time of use.
(§4) All the antifungal tests are carried out on microtitre plates. The initial suspensions of spores are prepared in a sterile solution containing 0.85% NaCl, supplemented with Tween 80 at 0.01%. These initial suspensions are then diluted in the culture medium (RPMI 1640 enriched or otherwise with 2% glucose) to a final concentration of 10^4 spores per ml. The measurements of viability of each inoculum are verified by subcultures of a volume of 300 μl on YEPD agar medium.
(§5) The antifungal compounds are tested in a range of concentrations ranging from 0.026 to 100 μg of active ingredient/ml. These antifungal compounds are then diluted in RPMI 1640 medium enriched or otherwise with 2% glucose. A final DMSO concentration of 0.2% is used throughout the measurements. Each trial is carried out on a series of dilutions of antifungal compounds, in duplicate. The antifungal dilutions (0.1 ml) and the fungal inoculum (0.1 ml) are added to each of the wells of the microtitre plate. The plates are then read with a spectrophotometer (ELX 800UV Bio-Tek Instruments, Inc) at a wavelength of 590 nm. The plates are read immediately after (t=0) and after 48 hours' incubation at 30° C. and in the dark. The optical density values obtained are correlated with fungal growth between the times t=0 and t=48 hours. The optical density values are used to calculate the percentage inhibition of growth for each concentration of antifungals by comparison with the control. The values are then used to plot a dose-response curve and the EC50 value is determined for each fungus and each compound with the aid of the Grafit 5.0® software (Erithacus software Ltd).
(§6) The method which was used to measure the type of interaction existing between the antifungal compounds in the form of mixtures is the Wadley method.
(§7) In the Wadley approach, the dose-response curve for each of the compounds A and B, and for the mixture AB, is constructed. The EC50 is calculated for each compound taken individually and for the mixture. If a and b are the absolute quantities of the compounds A and B in the mixture (a=1, b=1, a+b=2 under our conditions), the expected effective concentration (EC50exp) may be calculated in the following manner: EC50exp=(a+b)/[a/EC50A)+b/(EC50B)
(§8) The Wadley approach may be used to estimate the type of interaction existing between the fungal compounds, regardless of their concentration. Its reliability is not dependent on the percentage inhibition. The type of interaction between two compounds is given by the level of interaction (LI) which corresponds to the ratio between the expected effective concentration (EC50exp) and that observed (EC50obs) of the mixture. The nature of the interaction obtained by the Wadley formula is presented in Table 1 (see U. Gisi, Synergistic interaction in fungicide mixtures, 1996. Phytopathology 86, 1273-1279) below.
(§9) The experimental conditions are the same as previously described.

[2] = system: Candida albicans strains IP 48.72 (ATCC 10231); assay: as above; format: cell-based; conditions: for inhibition at 0.026 µg/mL / inhibition at 0.098 µg/mL / inhibition at 0.39 µg/mL / inhibition at 1.562 µg/mL / inhibition at 6.25 µg/mL / inhibition at 25 µg/mL / inhibition at 100 µg/mL / EC50: Candida albicans; for inhibition at 0.026 µg/mL: dose 0.026 μg/ml; for inhibition at 0.098 µg/mL: dose 0.098 μg/ml; for inhibition at 0.39 µg/mL: dose 0.39 μg/ml; for inhibition at 1.562 µg/mL: dose 1.562 μg/ml; for inhibition at 6.25 µg/mL: dose 6.25 μg/ml; for inhibition at 25 µg/mL: dose 25 μg/ml; for inhibition at 100 µg/mL: dose 100 μg/ml
Description: as §1, §2, §3, §4, §5, §6, §7, §8, §9

[3] = IP864.64, 48 h, minimal RPMI 1640 medium (MM), 48 hours at 30° C.
[4] = IP864.64, 48 h, rich RPMI 1640 medium (RM), 48 hours at 30° C.
[5] = ATCC10231, 48 h, minimal RPMI 1640 medium (MM), 48 hours at 30° C.
[6] = ATCC10231, 48 h, rich RPMI 1640 medium (RM), 48 hours at 30° C.

CCN(C)C=Nc1cc(C)c(Oc2ccc(Cl)c(C(F)(F)F)c2)cc1C [Compound I.1, N-ethyl-N-methyl-N′-[4-(4-chloro-3-trifluoromethylphenoxy)-2,5-dimethylphenyl]imidoformamide]
inhibition at 0.026 µg/mL [1, 3]: 1%
inhibition at 0.026 µg/mL [1, 4]: 2.24%
inhibition at 0.098 µg/mL [1, 3]: 57.9%
inhibition at 0.098 µg/mL [1, 4]: 23.1%
inhibition at 0.39 µg/mL [1, 3]: 80.1%
inhibition at 0.39 µg/mL [1, 4]: 51.1%
inhibition at 1.562 µg/mL [1, 3]: 94.6%
inhibition at 1.562 µg/mL [1, 4]: 97.4%
inhibition at 6.25 µg/mL [1, 3]: 97.1%
inhibition at 6.25 µg/mL [1, 4]: 98.1%
inhibition at 25 µg/mL [1, 3]: 98.4%
inhibition at 25 µg/mL [1, 4]: 98.1%
inhibition at 100 µg/mL [1, 3]: 98.1%
inhibition at 100 µg/mL [1, 4]: 97.4%
EC50 ([1]; IP864.64, 48 h, minimal RPMI 1640 medium (MM), 48 hours at 30° C., used alone, read-out: EC50): 0.1 µg/mL
EC50 ([1]; IP864.64, 48 h, rich RPMI 1640 medium (RM), 48 hours at 30° C., used alone, read-out: EC50): 0.31 µg/mL
EC50 ([1]; IP864.64, 48 h, second study, strain IP 864.64, RPMI 1640 medium enriched with 2% glucose, 48 hours at 30° C., read-out: EC50): 0.179 µg/mL
EC50 ([1]; IP864.64, on minimal (MM) or rich (RM) RPMI 1640 medium, summary in conclusions, read-out: EC50 values): 0.1 to 0.5 µg/mL
activity compared with itraconazole (compound II.2) ([1]; MM or RM medium): equivalent
EC50 compared with that of compound II.2 ([1]; second study, IP 864.64, enriched medium): similar
inhibition at 0.026 µg/mL [2, 5]: 4.6%
inhibition at 0.026 µg/mL [2, 6]: 12.6%
inhibition at 0.098 µg/mL [2, 5]: 7%
inhibition at 0.098 µg/mL [2, 6]: 27.3%
inhibition at 0.39 µg/mL [2, 5]: 46.1%
inhibition at 0.39 µg/mL [2, 6]: 43.6%
inhibition at 1.562 µg/mL [2, 5]: 96.2%
inhibition at 1.562 µg/mL [2, 6]: 96.9%
inhibition at 6.25 µg/mL [2, 5]: 98.7%
inhibition at 6.25 µg/mL [2, 6]: 99.5%
inhibition at 25 µg/mL [2, 5]: 99.2%
inhibition at 25 µg/mL [2, 6]: 99.5%
inhibition at 100 µg/mL [2, 5]: 98.1%
inhibition at 100 µg/mL [2, 6]: 98.8%
EC50 ([2]; ATCC10231, 48 h, minimal RPMI 1640 medium (MM), 48 hours at 30° C., used alone, read-out: EC50): 0.41 µg/mL
EC50 ([2]; ATCC10231, 48 h, rich RPMI 1640 medium (RM), 48 hours at 30° C., used alone, read-out: EC50): 0.3 µg/mL
EC50 ([2]; ATCC10231, 48 h, second study, strain IP 48.72, RPMI 1640 medium enriched with 2% glucose, 48 hours at 30° C., read-out: EC50): 0.635 µg/mL
EC50 ([2]; ATCC10231, on minimal (MM) or rich (RM) RPMI 1640 medium, summary in conclusions, read-out: EC50 values): 0.1 to 0.5 µg/mL
activity compared with fluconazole (compound II.1) ([2]; MM or RM medium): at least equivalent
